Reference: patent EP4755396A1, “TREATMENT OF P53 GENE MUTATION OR DEFECT NEGATIVE CANCER AND TUMOR PATIENTS” (Ascentawits Pharmaceuticals, Ltd., priority 2023, dated 2025)
“And” between values parts separate entries of the source, which are not always exact repeats. Equal values may be shown once.

Experiments:
[1] = system: Total P53, MDM2, P21, AKR1C3 proteins in H460 P53 KO cells; test: WB detection, presence and absence of Nutlin-3; format: cell-based, human; conditions: H460 P53 KO cells (#1, #7, #8, #12), 5 µM Nutlin-3, 24h, compared to H460 wild-type DMSO group (Figures 29, 30)
Method: (§1) • 1) H460 and H460 P53 KO cell suspensions were added to a 24-well plate, with a cell density of 100000 /well and 995 µL of medium per well. • 2) The cells were cultured overnight in an incubator at 37°C, 5% CO2. • 3) Compound Treatment
(§2) After 24 hours of cell plating, according to the protocol, each cell line experiment was grouped as: H460 WT untreated group, H460 P53 KO # 1 untreated group, H460 P53 KO # 7 untreated group, H460 P53 KO # 8 untreated group, H460 P53 KO # 12 untreated group, H460 WT 0.1% DMSO treated group, H460 WT 5 µM Nutlin-3 treated group, H460 P53 KO # 1 5 µM Nutlin-3 treated group, H460 P53 KO # 7 5 µM Nutlin-3 treated group, H460 P53 KO # 8 5 µM Nutlin-3 treated group, H460 P53 KO # 12 5 µM Nutlin-3 treated group. […]
(§3) • 1) The cell plates were taken back, the medium supernatant was discarded, and the plates were gently rinsed with PBS. […] The cells were scraped off with a cell scraper, lysed on ice for 30 min, and centrifuged at 14000 rpm and 4°C for 10 min. • 2) Protein quantification was performed using the BCA method. […] Solutions A and B of the ECL luminescence solution (SuperSignal West Femto Maximum Sensitivity) were mixed and added to the membrane dried away from water. […]

[2] = system: Total P53, MDM2, P21, AKR1C3 proteins in H460 cells; test: WB detection, presence and absence of Nutlin-3; format: cell-based, human; conditions: wild-type H460, 5 µM Nutlin-3, 24h, compared with the H460 wild-type DMSO group (Figures 29, 30)
Method: as §1, §2, §3

[3] = system: liver cancer; test: Phase II clinical trial of AST-3424 (CTR20191399); format: in vivo, human
From the text: The clinical trial registration number is CTR20191399.
• 1. Male or female, aged ≥18 years old. • 2. Histopathologically confirmed advanced HCC that cannot be controlled by surgical resection or local therapy. • 3. History of prior standard systemic therapy including, but not limited to, Sorafenib and/or Oxaliplatin-based systemic chemotherapy, Lenvatinib, Regorafenib and/or Nivolumab, who have experienced disease progression, toxicity intolerance, or refusal to continue treatment with these drugs. • 4. At least one measurable lesion meeting RECIST 1.1 criteria. A lesion with a history of prior radiation therapy shall not be regarded as the measurable lesion unless a definite radiological progression is observed after radiation therapy. • 5. […] Eastern Cooperative Oncology Group (ECOG) performance status score of 0 or 1. • 7. Expected survival time ≥ 12 weeks. • 8. With or without HBV or HCV infection. a. For subjects with HBV infection, HBV-DNA level shall be <2,000 IU/ml, and antiviral therapy with entecavir, tenofovir disoproxil fumarate, or tenofovir alafenamide fumarate shall be administered according to the national guidelines for the prevention and treatment of chronic hepatitis B. The therapy shall be maintained during the study and continued for 6 months after the last dose of the study drug. b. For subjects with HCV infection (in the presence of detectable HCV-RNA or anti-HCV antibodies), treatment may be conducted according to medical practice. • 9. Child-Pugh score ≤ 6 points. • 10. No history of hepatic encephalopathy. • 11. Prior to the initiation of the study drug, all toxicities from previous anticancer therapies (except alopecia, fatigue, or peripheral neuropathy) shall have returned to Grade 1 or baseline levels (NCI CTCAE Version 5). • 12. Subject's laboratory tests shall meet the following criteria. During 14 days before screening laboratory tests, no correction of indicators by blood transfusion, hematopoietic growth factor infusion or albumin infusion is allowed to meet the inclusion criteria: a. Hemoglobin ≥ 90 g/L; b. Platelet count ≥ 80 × 10^9/L; c. Absolute neutrophil count (ANC) ≥ 1.5 × 10^9/L; d. Serum total bilirubin ≤ 3 mg/dL; E. ALT and AST ≤ 5.0 × ULN; f. International normalized ratio (INR) ≤ 2.3 or prothrombin time prolongation ≤ 6 seconds; g. Albumin ≥ 29 g/L; h. Creatinine clearance > 50 mL/min as measured according to the Cockcroft-Gault equation. • 13. No history of alcohol, drug or substance abuse within the past year. • 14. Fertile female subjects shall be in non-lactating and have a negative pregnancy test result within 5 days prior to the initiation of treatment (the subject with a positive urine pregnancy test result needs to be reconfirmed by a serum pregnancy test). • 15. Fertile female and male subjects shall agree to use effective contraceptive measures (e.g. surgical sterilization or condom or diaphragm contraception combined with spermicidal gel or intrauterine contraceptive device [IUD], etc.) with their partners from the start of study participation until 6 months after the last dose of the study drug. • 16. Voluntary participation in this study, fully understanding of the relevant risks, good compliance, and signing the informed consent. Subjects may also sign an informed consent form for future biomedical research (FBR). However, the subjects who would not participate in FBR are still allowed participate in the main trial.
• 1. Untreated active central nervous system (CNS) metastases or leptomeningeal disease. Subjects with CNS metastases that have been adequately treated and confirmed to be stable for at least 4 weeks during screening by clinical tests and brain imaging (MRI or CT) are allowed to participate in the study. • 2. […]

[4] = system: A549 cells; test: Cell cycle G2/M arrest, PI staining flow cytometry; format: cell-based; conditions: second experiment, 0.3-9 nM AST-3424, 5 µM Nutlin-3, AST-3424 pre-treatment 2 hours (Figure 6)
Method: A second experiment was further conducted, in order to further study the effects of different concentrations of AST-3424 alone, Nutlin-3 alone and the two in combination and different administration sequences in the combination therapy on the cell cycle of H460/A549 cells (p53 wild-type, protein normal expression).
The remaining operations were similar to the above experiment, and the compound treatment conditions were as follows:
For A549 cell line, 1% DMSO, adding 5 µM Nutlin-3 for treatment for 22 hours, adding 0.3 nM AST-3424 for treatment for 24 hours, adding 1 nM AST-3424 for treatment for 24 hours, adding 9 nM AST-3424 for treatment for 24 hours, and adding 9 nM AST-3424 for treatment for 24 hours.
For A549 cell line, • Adding 0.3 nM AST-3424 for pre-treatment for 2 hours, and then adding 5 µM Nutlin-3 for co-treatment for 22 hours; • Adding 1 nM AST-3424 for pre-treatment for 2 hours, and then adding 5 µM Nutlin-3 for co-treatment for 22 hours; • Adding 3 nM AST-3424 for pre-treatment for 2 hours, and then adding 5 µM Nutlin-3 for co-treatment for 22 hours; • Adding 9 nM AST-3424 for pre-treatment for 2 hours, and then adding 5 µM Nutlin-3 for co-treatment for 22 hours.

[5] = system: γH2AX protein in H460 cells; test: WB detection of DNA damage marker; format: cell-based; conditions: 0.1-1 nM AST-3424, 5 µM Nutlin-3, 24 hours (Figures 20-22)
From the text: In the first, the second and the third experiment of the effect of AST-3424 in combination with Nutlin-3 on Ser15-p53, Ser20-p53, Total p53, MDM2 and p21 proteins in H460 cells in example 5, the applicant also performed WB detection of γH2AX protein, with the results shown in Figures 20, 21 and 22.

[6] = 8 subjects who completed efficacy evaluation, liver cancer, 6 mg/m^2 day 1 and day 8 of 21-day cycle, as of July 21, 2023
[7] = subgroup of 4 cases negative (-) for p53 gene mutation or defect, liver cancer, 6 mg/m^2 day 1 and day 8 of 21-day cycle, as of July 21, 2023

SMILES | expressions of MDM2, P53, P21 and AKR1C3 proteins (WB) [1] | expressions of MDM2, P53, P21 and AKR1C3 proteins (WB) [2] | overall DCR ([3]; 8 evaluated liver cancer subjects, 6 mg/m^2 day 1 and day 8 of 21-day cycle, as of July 21, 2023) | subjects achieved PD [3, 6] | subjects achieved PR [3, 6] | subjects achieved SD [3, 6] | ORR ([3]; overall, 8 evaluated liver cancer subjects, 6 mg/m^2 day 1 and day 8 of 21-day cycle, as of July 21, 2023) | Efficacy evaluation ([3]; per case, 3 subjects with positive P53 mutation, unclear in whether it affects protein expression (VUS) (Table 10), as of March 11, 2024) | PFS ([3]; per case, 8 P53 mutation-positive (MUT) subjects (Table 8), 6 mg/m^2 day 1 and day 8 of 21-day cycle, as of March 11, 2024) | DCR [3, 7] | ORR [3, 7] | DCR ([3]; subgroup of 4 cases positive (+) for p53 gene mutation or defect, liver cancer, 6 mg/m^2 day 1 and day 8 of 21-day cycle, as of July 21, 2023) | G2/M cell cycle arrest [4] | γH2AX protein amount, a biomarker of DNA double-strand damage (WB) [5]
COc1ccc(C2=NC(c3ccc(Cl)cc3)C(c3ccc(Cl)cc3)N2C(=O)N2CCNC(=O)C2)c(OC(C)C)c1 (racemic) [Nutlin-3] | not upregulated | all upregulated |  |  |  |  |  |  |  |  |  |  |  | 
C[C@H](OP(=O)(N1CC1)N1CC1)c1ccc([N+](=O)[O-])c(Oc2cccc(C(=O)N(C)C)c2)c1 [AST-3424] |  |  | 75% | 25% | 12.5% | 62.5% | 12.5% | SD, lesion increase | 1.4 months and 1.6 months and 1.5 months and 1.2 months | 75% | 25% | 75% | concentration-dependent G2/M cell cycle arrest | upregulate the amount of γH2AX protein
